Our source for the Km values is article PMC2453323 (PLoS Pathogens, 2008).

Structures are written as SMILES.

Format in all cases: biochemical
In assay [1] the target is neuraminidase (H275Y) of A(H1N1) clinical isolate 1170/08 (Influenza A virus (H1N1), UniProt G3LYR2).
Assay [2] addresses neuraminidase (H275Y) of A(H1N1) clinical isolate 0577/07 (Influenza A virus (H1N1), UniProt D5F1R0, D354G/H275Y).
In assay [3] the target is neuraminidase (H275Y) of A(H1N1) clinical isolate 0847/07 (Influenza A virus (H1N1), UniProt D5F1R0, D354G/H275Y).
Assay [4] deals with neuraminidase (H275Y) of A(H1N1) clinical isolate 0963/08 (Influenza A virus (H1N1), UniProt G3LYR2, G354D).
Assay [5] addresses neuraminidase (H275Y) of A(H1N1) clinical isolate 1208/08 (Influenza A virus (H1N1), UniProt G3LYR2).
The target of assay [6] is neuraminidase (H275Y) of A(H1N1) clinical isolate 1157/08 (Influenza A virus (H1N1), UniProt G3LYR2, G214E).
Assay [7] deals with neuraminidase (H275Y) of A(H1N1) clinical isolate 0341/07 (Influenza A virus (H1N1), UniProt D5F1R0, D354G/H275Y).
Assay [8] has as its target neuraminidase (H275Y) of the 11 resistant H1N1 viruses from the 2007–2008 season (Influenza A virus (H1N1), UniProt G3LYQ1, H275Y). Conditions: read-out: Mean Km, group Mean.
In assay [9] the target is neuraminidase (H275Y) of A(H1N1) clinical isolate 0910/08 (Influenza A virus (H1N1), UniProt G3LYR2).
In assay [10] the target is neuraminidase of A(H1N1) clinical isolate 0006/07 (Influenza A virus (H1N1), UniProt D5F1R0, K249G).
In assay [11] the target is neuraminidase (H275Y) of A(H1N1) clinical isolate 1154/08 (Influenza A virus (H1N1), UniProt G3LYR2).
The target of assay [12] is neuraminidase (H275Y) of A(H1N1) clinical isolate 0644/07 (Influenza A virus (H1N1), UniProt D5F1R0, D354G/H275Y).
For assay [13], the target named is neuraminidase (H275Y) of A(H1N1) clinical isolate 0749/07 (Influenza A virus (H1N1), UniProt D5F1R0, D354G/H275Y).

A word on the Km: it is the substrate concentration at which the rate is half of its maximum.

Consider `CC(=O)N[C@@H]1[C@@H](O)C[C@](Oc2ccc3c(C)cc(=O)oc3c2)(C(=O)O)O[C@H]1C(O)[C@H](O)CO` (stereo partly shown) [MUNANA], for which the Km is 18.2 µM in assay [1]; 19.5 µM in assay [2]; 24 µM in assay [3]; 18.4 µM in [4]; 19 µM in assay [5]; 20 µM in assay [6]. Moreover, the Km in assay [7] was 18 µM; in assay [8] it was 19.4 µM; in assay [9], 25 µM; in assay [10], 12.4 µM; in [11], 14.5 µM; in assay [12], 18.4 µM. Moreover, the Km in assay [13] came out at 18 µM.
